Data: patent US7384927B2, “Alkylated porphyrins as pesticides acting both in the presence and absence of light” (priority 2003, dated 2008)

Key:
Format in all cases: in vivo
[1] = tested on: Ceratitis capitata (fruit fly); assay: Uptake of alkylated porphyrins by flies fed porphyrin-containing bait; conditions: C. capitata
Description: Porphyrins: • a) meso[tri(N-methyl-pyridyl), mono(N-dodecyl-pyridyl)]porphine (abbr.: C12) • b) meso[tri(N-methyl-pyridyl), mono(N-tetradecyl-pyridyl)]porphine (abbr.: C14) • c) meso[tri(N-methyl-pyridyl), mono(N-octadecyl-pyridyl)]porphine (abbr.: C18) Bait: Aqueous solution containing 10% sucrose and 1% autolysed yeast Flies: • a) Ceratitis capitata (fruit fly) age: 1 week; weight: 5-6 mg • b) Bactrocera oleae (olive fly) age: 10 days; weight: 4-4.5 mg • c) Stomoxis calcitrans (stable fly) age: 10 days; weight: 12 mg Irradiation: • a) High pressure halogen lamp, equipped with infrared and UV filters, emission 360-850 nm, operated at intensities in the 760-2,000 μE s^−1m^−2 range • b) Sunlight, mid June at Padua latitude, average intensity of […] μE s^−1m^−2 with minimum and maximum values of 950 and, respectively, 1,380 μE s^−1m^−2
(§1) An appropriate number of flies (50 flies per each experiment) was caged in 115×55×70 mm Plexiglas cages with several holes (ø=0.5 mm) and starved for 36 h. Then, depending on the protocol to be adopted for each specific experiment, the flies were fed with the bait (10% sucrose and 1% autolysed yeast in neutral aqueous solution), which was either porphyrin-free or added with a predetermined concentration of the porphyrin. These flies were then used in the various experimental sessions.
(§2) At predetermined times, the flies were sacrificed by freezing; the dead flies were then homogenized with a Polytron in 10 ml of a 2% aqueous solution of sodium dodecylsulphate (SDS). The suspension was centrifuged for 10 min at 2,000 rpm, the pellet was discarded and known aliquots of the supernatant were diluted by means of a chloroform/methanol binary mixture (1/2, v/v). The porphyrin concentration was measured by reading the fluorescence emitted at wavelengths above 630 nm and interpolating the emission intensity with a calibration plot obtained with known amounts of the porphyrin. The results were expressed as nanomoles of porphyrin recovered per fly.

[2] = tested on: Bactrocera oleae (olive fly); assay: Release of alkylated porphyrin from flies after feeding with bait interrupted; conditions: B. oleae, 1.25 μM porphyrin in the bait
Description: as §1, §2

[3] = tested on: Ceratitis capitata (fruit fly); assay: as above; conditions: C. capitata, 1.25 μM porphyrin in the bait
Description: as §1, §2

[4] = tested on: Stomoxis calcitrans (stable fly); assay: as above; conditions: S. calcitrans, 1.25 μM porphyrin in the bait
Description: as §1, §2

[5] = tested on: Ceratitis capitata flies; assay: Insecticidal action in the dark: fly survival after porphyrin bait; conditions: dark, fed 24 h, survival 12 h after change to porphyrin-free bait
Procedure, shortened: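 Flies fed porphyrin-containing bait, then switched to porphyrin-free bait; survivors counted 12 h after the switch, in darkness. Control flies received bait without porphyrin (0 μM).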

[6] = tested on: Bactrocera oleae flies; assay: as above; conditions: fed 24 h, survival 12 h after change to porphyrin-free bait
Description: (§3) These flies were then used in the various experimental sessions. […] The number of survivors was evaluated 12 h after switching from administration of a porphyrin-containing bait to a porphyrin-free bait. In none of the experiments was mortality or any apparent toxic effect observed in control flies (flies not fed with porphyrin, see survival at 0 μM porphyrin concentration).

[7] = tested on: Stomoxis calcitrans flies; assay: as above; conditions: fed 24 h, survival 12 h after change to porphyrin-free bait
Description: as §3

[8] = tested on: Ceratitis capitata flies; assay: Photoinsecticidal action: fly survival after bait and visible light irradiation (artificial lamp); conditions: for Survival (% of control untreated flies): survival 10 h after irradiation
Procedure, shortened: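 Medflies (1 week old, 50 per cage) starved 36 h, then fed 10% sucrose/1% autolysed yeast bait with or without porphyrin. Irradiated 1 h with filtered halogen lamp (360–850 nm) at 1220 μE s^−1m^−2; survival scored 10 h after irradiation, controls given porphyrin-free bait.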

[9] = tested on: Ceratitis capitata flies; assay: Photoinsecticidal action: fly survival after bait and sunlight irradiation; conditions: 3 μM in bait, 12 h after feeding, survival 1 h after irradiation

Structure (SMILES): CCCCCCCCCCCCCC[n+]1ccc(-c2c3nc(c(-c4cc[n+](C)cc4)c4ccc([nH]4)c(-c4cc[n+](C)cc4)c4nc(c(-c5cc[n+](C)cc5)c5ccc2[nH]5)C=C4)C=C3)cc1 [C14, meso[tri(N-methyl-pyridyl), mono(N-tetradecyl-pyridyl)]porphine]
- Recoveries (nmoles of porphyrin per fly) ([1]; exposure time to bait 3 h, porphyrin in bait 1.24 μM): 2.9 nmoles of porphyrin per fly
- Recoveries (nmoles of porphyrin per fly) ([1]; exposure time to bait 12 h, porphyrin in bait 1.24 μM): 5.3 nmoles of porphyrin per fly
- Recoveries (nmoles of porphyrin per fly) ([1]; exposure time to bait 24 h, porphyrin in bait 1.24 μM): 5.7 nmoles of porphyrin per fly
- Recoveries (nmoles of porphyrin per fly) ([1]; porphyrin concentration in bait 0.75 (μmoles), feeding 24 h): 2.6 nmoles of porphyrin per fly
- Recoveries (nmoles of porphyrin per fly) ([1]; porphyrin concentration in bait 1.25 (μmoles), feeding 24 h): 5.7 nmoles of porphyrin per fly
- Recoveries (nmoles of porphyrin per fly) ([1]; porphyrin concentration in bait 2.10 (μmoles), feeding 24 h): 9.6 nmoles of porphyrin per fly
- Recoveries (nmoles of porphyrin per fly) ([1]; porphyrin concentration in bait 3.50 (μmoles), feeding 24 h): 11.5 nmoles of porphyrin per fly
- Recoveries (nmoles of porphyrin per fly) ([1]; porphyrin concentration in bait 6.00 (μmoles), feeding 24 h): 14.0 nmoles of porphyrin per fly
- Recoveries (nmoles of porphyrin per fly), release ([2]; 12 h after feeding interrupted): 3.2 nmoles of porphyrin per fly
- Recoveries (nmoles of porphyrin per fly), release ([2]; 24 h after feeding interrupted): 2.0 nmoles of porphyrin per fly
- Recoveries (nmoles of porphyrin per fly), release ([2]; 48 h after feeding interrupted): 0.6 nmoles of porphyrin per fly
- Recoveries (nmoles of porphyrin per fly), release ([3]; 12 h after feeding interrupted): 3.0 nmoles of porphyrin per fly
- Recoveries (nmoles of porphyrin per fly), release ([3]; 24 h after feeding interrupted): 1.8 nmoles of porphyrin per fly
- Recoveries (nmoles of porphyrin per fly), release ([3]; 48 h after feeding interrupted): 0.7 nmoles of porphyrin per fly
- Recoveries (nmoles of porphyrin per fly), release ([4]; 12 h after feeding interrupted): 4.3 nmoles of porphyrin per fly
- Recoveries (nmoles of porphyrin per fly), release ([4]; 24 h after feeding interrupted): 2.2 nmoles of porphyrin per fly
- Recoveries (nmoles of porphyrin per fly), release ([4]; 48 h after feeding interrupted): 0.8 nmoles of porphyrin per fly
- Survival (% of control untreated flies) ([5]; 0.75 μM in bait): 100 % of control untreated flies
- Survival (% of control untreated flies) ([5]; 1.25 μM in bait): 51 % of control untreated flies
- Survival (% of control untreated flies) ([5]; 2.10 μM in bait): 38 % of control untreated flies
- Survival (% of control untreated flies) ([5]; 3.00 μM in bait): 21 % of control untreated flies
- Survival (% of control untreated flies) ([5]; 5.00 μM in bait): 14 % of control untreated flies
- Survival (% of control untreated flies) ([5]; 8.10 μM in bait): 9 % of control untreated flies
- Survival (% of control untreated flies) ([6]; 0.75 μM in bait): 100 % of control untreated flies
- Survival (% of control untreated flies) ([6]; 1.25 μM in bait): 100 % of control untreated flies
- Survival (% of control untreated flies) ([6]; 2.10 μM in bait): 69 % of control untreated flies
- Survival (% of control untreated flies) ([6]; 3.00 μM in bait): 50 % of control untreated flies
- Survival (% of control untreated flies) ([6]; 5.00 μM in bait): 37 % of control untreated flies
- Survival (% of control untreated flies) ([6]; 8.10 μM in bait): 19 % of control untreated flies
- Survival (% of control untreated flies) ([7]; 0.75 μM in bait): 100 % of control untreated flies
- Survival (% of control untreated flies) ([7]; 1.25 μM in bait): 77 % of control untreated flies
- Survival (% of control untreated flies) ([7]; 2.10 μM in bait): 52 % of control untreated flies
- Survival (% of control untreated flies) ([7]; 3.00 μM in bait): 31 % of control untreated flies
- Survival (% of control untreated flies) ([7]; 5.00 μM in bait): 11 % of control untreated flies
- Survival (% of control untreated flies) ([7]; 8.10 μM in bait): 3 % of control untreated flies
- Survival (% of control untreated flies) ([8]; 3 μM in bait 24 h, time interval feeding-irradiation 0 h, irradiation 1 h at 1220 μE s^−1m^−2): 0 % of control untreated flies
- Survival (% of control untreated flies) ([8]; 3 μM in bait 24 h, time interval feeding-irradiation 12 h, irradiation 1 h at 1220 μE s^−1m^−2): 0 % of control untreated flies
- Survival (% of control untreated flies) ([8]; 3 μM in bait 24 h, time interval feeding-irradiation 24 h, irradiation 1 h at 1220 μE s^−1m^−2): 10 % of control untreated flies
- Survival (% of control untreated flies) ([8]; 3 μM in bait 24 h, time interval feeding-irradiation 48 h, irradiation 1 h at 1220 μE s^−1m^−2): 21 % of control untreated flies
- Survival (% of control untreated flies) ([8]; 3 μM in bait, fluence-rate 760 μE s^−1m^−2, irradiated 24 h after feeding (title)): 10 % of control untreated flies
- Survival (% of control untreated flies) ([8]; 3 μM in bait, fluence-rate 1220 μE s^−1m^−2, irradiated 24 h after feeding (title)): 0 % of control untreated flies
- Survival (% of control untreated flies) ([8]; 3 μM in bait, fluence-rate 1500 μE s^−1m^−2, irradiated 24 h after feeding (title)): 0 % of control untreated flies
- Survival (% of control untreated flies) ([8]; 3 μM in bait, fluence-rate 2000 μE s^−1m^−2, irradiated 24 h after feeding (title)): 0 % of control untreated flies
- time by which essentially all flies died ([8]; after 1 h illumination with artificial light or sunlight): ≤ 45 min
- photoinsecticidal action compared among alkylated porphyrins ([8]; irradiation with visible light or sunlight): most efficient insecticidal action
- Survival (% of control untreated flies) ([9]; sunlight (average 1150 μE s^−1m^−2) 15 min): 21 % of control untreated flies
- Survival (% of control untreated flies) ([9]; sunlight (average 1150 μE s^−1m^−2) 30 min): 10 % of control untreated flies
- Survival (% of control untreated flies) ([9]; sunlight (average 1150 μE s^−1m^−2) 45 min): 0 % of control untreated flies
- Survival (% of control untreated flies) ([9]; sunlight (average 1150 μE s^−1m^−2) 60 min): 0 % of control untreated flies
